Assay results: ChEMBL document CHEMBL3885861, “Open TG-GATES”

Organism: Rattus norvegicus
Test: Open TG-GATES - Regimen: Single
Type: toxicity, organism-based, Sprague-Dawley
Design: regimen Single, gender Male, age 6 weeks
Details: in vivo, po, route gavage; for APTT / Bas / Eos / Fbg / Hb / Ht / Lym / MCH / MCHC / MCV / Mono / Neu / Plat / RBC / Ret / WBC: tissue Blood; for KIDNEY_L / KIDNEY_R / KIDNEY_TOTAL: tissue Kidney; for LIVER: tissue Liver; for ALP / ALT / AST / CRE / DBIL / GLC / IP / K / LDH / Na / PL / RALB / TBIL / TC / TG / TP / gamma-GTP: tissue Plasma
[1] = 100 mg/kg, 24 h, dose level Low
[2] = 300 mg/kg, 3 h, dose level Middle
[3] = 300 mg/kg, 6 h, dose level Middle
[4] = 300 mg/kg, 9 h, dose level Middle
[5] = 300 mg/kg, 24 h, dose level Middle

CN(C)CCC=C1c2ccccc2COc2ccccc21 [DOXEPIN]
TERMINAL_BW (100 mg/kg, 9 h, dose level Low): 193.4 g | APTT (100 mg/kg, 9 h, dose level Low): 24.3 s | Bas (100 mg/kg, 9 h, dose level Low): 0% | Eos (100 mg/kg, 9 h, dose level Low): 0.8% | Fbg (100 mg/kg, 9 h, dose level Low): 284.4 mg/dL | Hb (100 mg/kg, 9 h, dose level Low): 13.5 g/dL | Ht (100 mg/kg, 9 h, dose level Low): 40.9% | Lym (100 mg/kg, 9 h, dose level Low): 80.4% | MCH (100 mg/kg, 9 h, dose level Low): 21.9 pg | MCHC (100 mg/kg, 9 h, dose level Low): 32.9% | MCV (100 mg/kg, 9 h, dose level Low): 66.5 fL | Mono (100 mg/kg, 9 h, dose level Low): 2.4% | Neu (100 mg/kg, 9 h, dose level Low): 16% | Plat (100 mg/kg, 9 h, dose level Low): 117.4 x10_4/uL | RBC (100 mg/kg, 9 h, dose level Low): 614.6 x10_4/ul | Ret (100 mg/kg, 9 h, dose level Low): 8.5% | WBC (100 mg/kg, 9 h, dose level Low): 81.6 x10_2/uL | KIDNEY_L (100 mg/kg, 9 h, dose level Low): 0.9 g | KIDNEY_R (100 mg/kg, 9 h, dose level Low): 0.9 g | KIDNEY_TOTAL (100 mg/kg, 9 h, dose level Low): 1.8 g | LIVER (100 mg/kg, 9 h, dose level Low): 7.7 g | ALP (100 mg/kg, 9 h, dose level Low): 1637.2 IU/L | ALT (100 mg/kg, 9 h, dose level Low): 33.8 IU/L | AST (100 mg/kg, 9 h, dose level Low): 69.4 IU/L | CRE (100 mg/kg, 9 h, dose level Low): 0.2 mg/dL | DBIL (100 mg/kg, 9 h, dose level Low): 0.002 mg/dL | GLC (100 mg/kg, 9 h, dose level Low): 167 mg/dL | IP (100 mg/kg, 9 h, dose level Low): 10.4 mg/dL | K (100 mg/kg, 9 h, dose level Low): 4 meq/L | LDH (100 mg/kg, 9 h, dose level Low): 99.6 IU/L | Na (100 mg/kg, 9 h, dose level Low): 144.8 meq/L | PL (100 mg/kg, 9 h, dose level Low): 135 mg/dL | RALB (100 mg/kg, 9 h, dose level Low): 2.5 g/dL | TBIL (100 mg/kg, 9 h, dose level Low): 0.062 mg/dL | TC (100 mg/kg, 9 h, dose level Low): 72.6 mg/dL | TG (100 mg/kg, 9 h, dose level Low): 26.6 mg/dL | TP (100 mg/kg, 9 h, dose level Low): 5.3 g/dL | gamma-GTP (100 mg/kg, 9 h, dose level Low): 1 IU/L | TERMINAL_BW [1]: 208.9 g | APTT [1]: 17.3 s | Bas [1]: 0% | Eos [1]: 0.8% | Fbg [1]: 264.6 mg/dL | Hb [1]: 14 g/dL | Ht [1]: 41.3% | Lym [1]: 78.2% | MCH [1]: 21.9 pg | MCHC [1]: 34% | MCV [1]: 64.4 fL | Mono [1]: 2.6% | Neu [1]: 17.4% | Plat [1]: 125.2 x10_4/uL | RBC [1]: 641.6 x10_4/ul | Ret [1]: 7.3% | WBC [1]: 97.7 x10_2/uL | KIDNEY_L [1]: 0.9 g | KIDNEY_R [1]: 0.9 g | KIDNEY_TOTAL [1]: 1.8 g | ALP [1]: 2097.8 IU/L | ALT [1]: 45 IU/L | AST [1]: 75.8 IU/L | CRE [1]: 0.2 mg/dL | DBIL [1]: 0.006 mg/dL | GLC [1]: 176.4 mg/dL | IP [1]: 7.5 mg/dL | K [1]: 4 meq/L | LDH [1]: 112.6 IU/L | Na [1]: 142 meq/L | PL [1]: 155.8 mg/dL | RALB [1]: 2.6 g/dL | TBIL [1]: 0.04 mg/dL | TC [1]: 80.4 mg/dL | TG [1]: 101 mg/dL | TP [1]: 5.6 g/dL | gamma-GTP [1]: 1 IU/L | TERMINAL_BW [2]: 198.6 g | APTT [2]: 17.8 s | Bas [2]: 0.2% | Eos [2]: 0.4% | Fbg [2]: 275.2 mg/dL | Hb [2]: 12.9 g/dL | Ht [2]: 40% | Lym [2]: 73% | MCH [2]: 21.7 pg | MCHC [2]: 32.1% | MCV [2]: 67.4 fL | Mono [2]: 3.2% | Neu [2]: 22.4% | Plat [2]: 112.8 x10_4/uL | RBC [2]: 593.6 x10_4/ul | Ret [2]: 10% | WBC [2]: 63.7 x10_2/uL | KIDNEY_L [2]: 0.9 g | KIDNEY_R [2]: 0.9 g | KIDNEY_TOTAL [2]: 1.8 g | LIVER [2]: 9 g | ALP [2]: 1422.6 IU/L | ALT [2]: 48 IU/L | AST [2]: 76.6 IU/L | CRE [2]: 0.1 mg/dL | DBIL [2]: 0.002 mg/dL | GLC [2]: 187.4 mg/dL | IP [2]: 10 mg/dL | K [2]: 3.9 meq/L | LDH [2]: 71.2 IU/L | Na [2]: 145.6 meq/L | PL [2]: 147.6 mg/dL | RALB [2]: 2.4 g/dL | TBIL [2]: 0.044 mg/dL | TC [2]: 78.6 mg/dL | TG [2]: 64.6 mg/dL | TP [2]: 5.3 g/dL | gamma-GTP [2]: 1.2 IU/L | TERMINAL_BW [3]: 194.4 g | APTT [3]: 17.3 s | Bas [3]: 0.2% | Eos [3]: 0.8% | Fbg [3]: 290 mg/dL | Hb [3]: 12.9 g/dL | Ht [3]: 40% | Lym [3]: 74.2% | MCH [3]: 21.3 pg | MCHC [3]: 32.4% | MCV [3]: 66 fL | Mono [3]: 3% | Neu [3]: 21% | Plat [3]: 126.3 x10_4/uL | RBC [3]: 605.6 x10_4/ul | Ret [3]: 9.5% | WBC [3]: 84.5 x10_2/uL | KIDNEY_L [3]: 0.9 g | KIDNEY_R [3]: 0.9 g | KIDNEY_TOTAL [3]: 1.8 g | LIVER [3]: 7.8 g | ALP [3]: 1630.2 IU/L | ALT [3]: 42.2 IU/L | AST [3]: 83.2 IU/L | CRE [3]: 0.1 mg/dL | DBIL [3]: 0 mg/dL | GLC [3]: 185 mg/dL | IP [3]: 11.1 mg/dL | K [3]: 3.7 meq/L | LDH [3]: 85.2 IU/L | Na [3]: 146.2 meq/L | PL [3]: 141.6 mg/dL | RALB [3]: 2.5 g/dL | TBIL [3]: 0.054 mg/dL | TC [3]: 82.6 mg/dL | TG [3]: 11.2 mg/dL | TP [3]: 5.4 g/dL | gamma-GTP [3]: 1.4 IU/L | TERMINAL_BW [4]: 192.2 g | APTT [4]: 17.8 s | Bas [4]: 0% | Eos [4]: 1% | Fbg [4]: 275 mg/dL | Hb [4]: 13.2 g/dL | Ht [4]: 39.9% | Lym [4]: 77.6% | MCH [4]: 21.9 pg | MCHC [4]: 33% | MCV [4]: 66.4 fL | Mono [4]: 2.6% | Neu [4]: 18.4% | Plat [4]: 130.9 x10_4/uL | RBC [4]: 603.6 x10_4/ul | Ret [4]: 9.4% | WBC [4]: 76.7 x10_2/uL | KIDNEY_L [4]: 0.9 g | KIDNEY_R [4]: 0.9 g | KIDNEY_TOTAL [4]: 1.7 g | LIVER [4]: 7.6 g | ALP [4]: 1517.4 IU/L | ALT [4]: 38.2 IU/L | AST [4]: 64.8 IU/L | CRE [4]: 0.1 mg/dL | DBIL [4]: 0.002 mg/dL | GLC [4]: 184 mg/dL | IP [4]: 10.4 mg/dL | K [4]: 3.9 meq/L | LDH [4]: 74.2 IU/L | Na [4]: 145.2 meq/L | PL [4]: 142 mg/dL | RALB [4]: 2.5 g/dL | TBIL [4]: 0.06 mg/dL | TC [4]: 79.2 mg/dL | TG [4]: 12.2 mg/dL | TP [4]: 5.5 g/dL | gamma-GTP [4]: 1 IU/L | TERMINAL_BW [5]: 185.6 g | APTT [5]: 16.9 s | Bas [5]: 0% | Eos [5]: 0.8% | Fbg [5]: 277.2 mg/dL | Hb [5]: 14.8 g/dL | Ht [5]: 43.9% | Lym [5]: 81.2% | MCH [5]: 22 pg | MCHC [5]: 33.8% | MCV [5]: 65.2 fL | Mono [5]: 2.2% | Neu [5]: 15.6% | Plat [5]: 130.7 x10_4/uL | RBC [5]: 672.8 x10_4/ul | Ret [5]: 7.4% | WBC [5]: 65.5 x10_2/uL | KIDNEY_L [5]: 0.9 g | KIDNEY_R [5]: 0.9 g | KIDNEY_TOTAL [5]: 1.8 g | LIVER [5]: 7.3 g | ALP [5]: 1482.6 IU/L | ALT [5]: 31.8 IU/L | AST [5]: 59 IU/L | CRE [5]: 0.2 mg/dL | DBIL [5]: 0 mg/dL | GLC [5]: 173.2 mg/dL | IP [5]: 9.1 mg/dL | K [5]: 4.1 meq/L | LDH [5]: 87 IU/L | Na [5]: 144.6 meq/L | PL [5]: 131.8 mg/dL | RALB [5]: 2.6 g/dL | TBIL [5]: 0.046 mg/dL | TC [5]: 74.4 mg/dL | TG [5]: 30.6 mg/dL | TP [5]: 5.7 g/dL | gamma-GTP [5]: 1 IU/L
